Patent US11332455B2, “α,β-unsaturated amide compound” (KYOWA KIRIN CO., LTD., priority 2015, dated 2022)

Tested on: NCI-H226 cells, a human mesothelioma cell line
Test: Cell growth inhibitory effect, cell counting kit 8, 6 days
Assay type: cell-based
Details: 144 h, 6 days incubation
Description: Cell growth inhibitory effect on human mesothelioma, human liver cancer, human ovarian cancer, and […]
NCI-H226 cells, a human mesothelioma cell line (ATCC, CRL-5826), NCI-H322 cells, a human lung cancer cell line (the European Collection of Authenticated Cell Cultures, 95111734), OVTOKO cells, a human ovarian cancer cell line (JCRB cell bank, JCRB1048) and HuH28, a human liver cancer cell line (JCRB cell bank, JCRB0426) were each subcultured by keeping the cell density under 80% in a RPMI1640 culture medium with 10% fetal bovine serum (FBS). NCI-H226 cells, NCI-H322 cells and SSP-25 cells were each suspended in the RPM11640 culture medium mentioned above, and plated to a 96-well flat-bottom plate at 500 cells/well in each well, and incubated at 37° C. in an incubator with 5% CO2 for one day. After the incubation, the evaluation of cell growth inhibitory activity was started. OVTOKO cells were suspended in the RPMI1640 culture medium mentioned above, and plated to a 96-well flat-bottom plate at 250 cells/well in each well, and incubated it at 37° C. in an incubator with 5% CO2 for one day. After the incubation, the evaluation of the cell growth inhibitory activity was started. The next day, a test compound was serially diluted to 5 times of its final concentration in the RPM11640 culture medium mentioned above, and the diluted solution was added to each well. In this case, the final concentration of DMSO in each well was adjusted to 0.1%. After the test compound was added, cells were incubated at 37° C. in an incubator with 5% CO2 for 6 days. At the addition of the test compound and 6 days after the addition, the cell counting measurement was performed using a cell counting kit 8 (made by DOJINDO) according to a protocol equivalent to DOJINDO's recommendation. A reagent contained in the kit was added to each plate and color reaction was performed for 2 or 3 hours at 37° C. in an incubator with 5% CO2. After the reaction, an absorbance at wavelength of 450 nm was measured using a microplate reader. A growth inhibition rate was calculated according to the following formula, from which the concentration of a test compound at which cell growth was inhibited by 50% (GI50 value) was determined.

[1] = group 100 nmol/L to 1 μmol/L (upper bound given in μmol/L)

Row | SMILES | GI50 [1] [nM] | GI50 (group less than 100 nmol/L) [nM]
1 | C=CC(=O)N[C@H]1CC[C@@H](Oc2cnc(Cl)c(Cl)c2)c2nc(Cl)ccc21 (relative stereo) [Compound 181, cis-N-[2-Chloro-8-{(5,6-dichloropyridin-3-yl)oxy}-5,6,7,8-tetrahydroquinolin-5-yl]acrylamide] | 100 to 1000 | 
2 | C=CC(=O)NC1CCOc2cc(Oc3ccc(Cl)cc3)c(C)cc21 (stereo not shown) [Compound 23, N-{7-(4-Chlorophenoxy)-6-methylchroman-4-yl}acrylamide] | 100 to 1000 | 
3 | C=CC(=O)N[C@H]1CC[C@@H](Oc2ccc(C(F)(F)F)cc2)c2nc(CC)ccc21 (relative stereo) [Compound 186, cis-N-[2-ethyl-8-{4-(trifluoromethyl)phenoxy}-5,6,7,8-tetrahydroquinolin-5-yl]acrylamide] | 100 to 1000 | 
4 | C=CC(=O)NCc1cc(Oc2ccc(C(F)(F)F)cc2)cc2cccnc12 [Compound 221, N-([6-{4-(Trifluoromethyl)phenoxy}quinolin-8-yl]methyl)acrylamide] | 100 to 1000 | 
5 | C=CC(=O)NCC1CCOc2cc(Oc3ccc(Cl)cc3)ccc21 (stereo not shown) [Compound 26, N-[{7-(4-Chlorophenoxy)chroman-4-yl}methyl]acrylamide] | 100 to 1000 | 
6 | C=CC(=O)NC1COc2cccc(Oc3ccc(Cl)cc3)c2C1 (stereo not shown) [Compound 34, N-{5-(4-Chlorophenoxy)chroman-3-yl}acrylamide] |  | < 100
7 | C=CC(=O)NC1COc2c(cccc2Oc2cccc(C(F)(F)F)c2)C1 (stereo not shown) [Compound 43, N-[8-{3-(Trifluoromethyl)phenoxy}chroman-3-yl]acrylamide] |  | < 100
8 | C=CC(=O)NC1CCOc2cc(Oc3ccccc3)ccc21 (stereo not shown) [Compound 1, N-(7-phenoxychroman-4-yl)acrylamide] |  | < 100
9 | C=CC(=O)NC1CCOc2c1ccc(Oc1ccc(C(F)(F)F)cc1)c2F (stereo not shown) [Compound 239, N-[8-Fluoro-7-{4-(trifluoromethyl)phenoxy}chroman-4-yl]acrylamide] |  | < 100
10 | C=CC(=O)NCc1ccc(Oc2ccc(C3CC3)cc2)c2ncccc12 [Compound 136, N-[{8-(4-Cyclopropylphenoxy)quinolin-5-yl}methyl]acrylamide] | 100 to 1000 | 
11 | C=CC(=O)N[C@H]1CC[C@H](Oc2ccc(Cl)cc2)c2nc(OC)ccc21 (relative stereo) [Compound 81, trans-N-{8-(4-Chlorophenoxy)-2-methoxy-5,6,7,8-tetrahydroquinolin-5-yl}acrylamide] | 100 to 1000 | 
12 | C=CC(=O)NCc1ccc(Oc2cccc(Cl)c2)c2ncccc12 [Compound 133, N-[{8-(3-chlorophenoxy)quinolin-5-yl}methyl]acrylamide] |  | < 100
13 | C=CC(=O)NC1COc2c(cccc2Oc2ccc(C(F)(F)F)cn2)C1 (stereo not shown) [Compound 50, N-(8-[{5-(Trifluoromethyl)pyridin-2-yl}oxy]chroman-3-yl)acrylamide] |  | < 100
14 | C=CC(=O)Nc1cncc(Oc2ccc(Cl)c(Cl)c2)c1 [Compound 105, N-{5-(3,4-Dichlorophenoxy)pyridin-3-yl}acrylamide] | 100 to 1000 | 
15 | C=CC(=O)N[C@H]1C[C@@H](C)Oc2cc(Oc3ccc(C(F)(F)F)cc3)ccc21 (relative stereo) [Compound 19, cis-N-[2-Methyl-7-{4-(trifluoromethyl)phenoxy}chroman-4-yl]acrylamide] |  | < 100
16 | C=CC(=O)Nc1cncc(Oc2cccc(OCC)c2)c1 [Compound 101, N-{5-(3-Ethoxyphenoxy)pyridin-3-yl}acrylamide] | 100 to 1000 | 
17 | C=CC(=O)Nc1cc(Oc2ccc(Cl)cc2)cnc1C [Compound 93, N-{5-(4-Chlorophenoxy)-2-methylpyridin-3-yl}acrylamide] | 100 to 1000 | 
18 | C=CC(=O)NCc1ccc(Oc2ccc(Cl)nc2)c2ncccc12 [Compound 142, N-([8-{(6-Chloropyridin-3-yl)oxy}quinolin-5-yl]methyl)acrylamide] | 100 to 1000 | 
19 | C=CC(=O)Nc1cnc(C)c(Oc2ccc(Cl)cc2)c1 [Compound 92, N-{5-(4-Chlorophenoxy)-6-methylpyridin-3-yl}acrylamide] | 100 to 1000 | 
20 | C=CC(=O)N[C@H]1CC[C@@H](Oc2ccccc2)c2ncccc21 (relative stereo) [Compound 67, cis-N-(8-Phenoxy-5,6,7,8-tetrahydroquinolin-5-yl)acrylamide] | 100 to 1000 | 
21 | C=CC(=O)NC1CCOc2cc(Oc3ccc(C(F)(F)F)c(Cl)n3)ccc21 (stereo not shown) [Compound 11, N-(7-[{6-Chloro-5-(trifluoromethyl)pyridin-2-yl}oxy]chroman-4-yl)acrylamide] |  | < 100
22 | C=CC(=O)NCc1cc(Oc2ccc(C(F)(F)F)cc2)nc2ccccc12 [Compound 146, N-([2-{4-(Trifluoromethyl)phenoxy}quinolin-4-yl]methyl)acrylamide] | 100 to 1000 | 
23 | C=CC(=O)NC1CCOc2cc(OCC3CCCCC3)ccc21 (stereo not shown) [Compound 16, N-{7-(Cyclohexylmethoxy)chroman-4-yl}acrylamide] | 100 to 1000 | 
24 | C=CC(=O)N[C@H]1C[C@H](C)Oc2cc(Oc3ccc(C(F)(F)F)cc3)ccc21 (relative stereo) [Compound 20, trans-N-[2-Methyl-7-{4-(trifluoromethyl)phenoxy}chroman-4-yl]acrylamide] |  | < 100
25 | C=CC(=O)NC1CCOc2c1ccc(Oc1ccc(Cl)cc1)c2F (stereo not shown) [Compound 30, N-{7-(4-Chlorophenoxy)-8-fluorochroman-4-yl}acrylamide] |  | < 100
26 | C=CC(=O)NC1COc2c(cc(Br)cc2Oc2ccc(C(F)(F)F)nc2)C1 (stereo not shown) [Compound 231, N-(6-Bromo-8-[{6-(trifluoromethyl)pyridin-3-yl}oxy]chroman-3-yl)acrylamide] |  | < 100

Next, values leading:

Row | GI50 [1] [nM] | GI50 (group less than 100 nmol/L) [nM] | SMILES
27 | 100 to 1000 |  | C=CC(=O)NC1COc2c(cccc2Oc2ccc(Cl)nc2)C1 (stereo not shown) [Compound 49, N-[8-{(6-Chloropyridin-3-yl)oxy}chroman-3-yl]acrylamide]
28 |  | < 100 | C=CC(=O)NC1CCOc2c1ccc(Oc1ccc(F)cc1)c2F (stereo not shown) [Compound 167, N-{8-Fluoro-7-(4-fluorophenoxy)chroman-4-yl}acrylamide]
29 |  | < 100 | C=CC(=O)NC1CCOc2cc(Oc3ccc(Cl)cc3)ccc21 (stereo not shown) [Compound 3, N-{7-(4-Chlorophenoxy)chroman-4-yl}acrylamide]
30 | 100 to 1000 |  | C=CC(=O)NC1CCOc2cc(OCc3ccccc3)ccc21 (stereo not shown) [Compound 14, N-{7-(Benzyloxy)chroman-4-yl}acrylamide]
31 |  | < 100 | C=CC(=O)NC1CCOc2c1ccc(Oc1ccc(C(F)(F)F)cc1)c2OC (stereo not shown) [Compound 237, N-[8-Methoxy-7-{4-(trifluoromethyl)phenoxy}chroman-4-yl]acrylamide]
32 | 100 to 1000 |  | C=CC(=O)Nc1ccc(OC2CCC(F)(F)CC2)c2ncccc12 [Compound 120, N-[8-{(4,4-Difluorocyclohexyl)oxy}quinolin-5-yl]acrylamide]
33 | 100 to 1000 |  | C=CC(=O)Nc1ccc(OCc2ccccc2)c2ncccc12 [Compound 123, N-{8-(Benzyloxy)quinolin-5-yl}acrylamide]
34 | 100 to 1000 |  | O=C(/C=C/C(F)(F)F)NCc1cc(Oc2ccc(C(F)(F)F)cc2)nc2ccccc12 [Compound 147, (E)-4,4,4-Trifluoro-N-([2-{4-(trifluoromethyl)phenoxy}quinolin-4-yl]methyl)-2-butenamide]
35 |  | < 100 | C=CC(=O)NC1COc2c(cccc2Oc2ccc(C(F)(F)F)cc2)C1 (stereo not shown) [Compound 44, N-[8-{4-(Trifluoromethyl)phenoxy}chroman-3-yl]acrylamide]
36 | 100 to 1000 |  | C=CC(=O)Nc1cncc(Oc2ccc(OC(C)C)cc2)c1 [Compound 103, N-{5-(4-Isopropoxyphenoxy)pyridin-3-yl}acrylamide]
37 | 100 to 1000 |  | C=CC(=O)NC1CCOc2ccc(Oc3ccc(Cl)cc3)cc21 (stereo not shown) [Compound 24, N-{6-(4-Chlorophenoxy)chroman-4-yl}acrylamide]
38 | 100 to 1000 |  | C=CC(=O)NC1CCOc2c1ccc(Oc1ccc(C(F)(F)F)nc1)c2OCC (stereo not shown) [Compound 172, N-(8-Ethoxy-7-[{6-(trifluoromethyl)pyridin-3-yl}oxy]chroman-4-yl)acrylamide]
39 | 100 to 1000 |  | C=CC(=O)Nc1cncc(Oc2ccc(OCC)cc2)c1 [Compound 102, N-{5-(4-Ethoxyphenoxy)pyridin-3-yl}acrylamide]
40 | 100 to 1000 |  | C=CC(=O)NCc1cc(Oc2ccc(Cl)cc2)nc2ccccc12 [Compound 144, N-[{2-(4-Chlorophenoxy)quinolin-4-yl}methyl]acrylamide]
41 | 100 to 1000 |  | C=CC(=O)Nc1cncc(Oc2ccc(Cl)cc2)c1 [Compound 94, N-{5-(4-chlorophenoxy)pyridin-3-yl}acrylamide]
42 |  | < 100 | C=CC(=O)Nc1cncc(Oc2ccc(OC(F)(F)F)cc2)c1 [Compound 100, N-[5-{4-(Trifluoromethoxy)phenoxy}pyridin-3-yl]acrylamide]
43 | 100 to 1000 |  | C=CC(=O)NC1CCOc2c1ccc(OCc1ccccc1)c2F (stereo not shown) [Compound 166, N-{7-(Benzyloxy)-8-fluorochroman-4-yl}acrylamide]
